Test results: PubChem BioAssay AID330 (DTP/NCI, 2004)
Several values for one entry are separate records, joined by “and”; a condition that tells them apart may be missing. Equal entries are not always repeated. Toxic doses and inconclusive results are not listed.

Test system: P388 leukemia ip, CD2F1 mice, survival T/C
Assay: NCI In Vivo Anticancer Drug Screen. Data for tumor model P388 Leukemia (intraperitoneal) in CD2F1 (CDF1) mice
Settings: endpoint: median survival time, higher = longer survival
Procedure, shortened: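 Mice carrying the transplanted tumor received test compound or vehicle. Survival was recorded in each group, and the value is the treated-group measurement divided by that of the vehicle-treated control group.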

[1] = dose: 50.0 mg/kg/injection, schedule: Q01DX005 (ip), vehicle: Klucel (hydroxypropylcellulose) (HPC)
[2] = dose: 100.0 mg/kg/injection, schedule: Q01DX005 (ip), vehicle: Klucel (hydroxypropylcellulose) (HPC)
[3] = dose: 200.0 mg/kg/injection, schedule: Q01DX005 (ip), vehicle: Klucel (hydroxypropylcellulose) (HPC)
[4] = dose: 60.0 mg/kg/injection, schedule: Q01DX005 (ip), vehicle: saline with Tween-80
[5] = dose: 120.0 mg/kg/injection, schedule: Q01DX005 (ip), vehicle: saline with Tween-80
[6] = dose: 240.0 mg/kg/injection, schedule: Q01DX005 (ip), vehicle: saline with Tween-80
[7] = dose: 25.0 mg/kg/injection, schedule: Q01DX009 (ip), vehicle: saline with Tween-80
[8] = dose: 50.0 mg/kg/injection, schedule: Q01DX009 (ip), vehicle: saline with Tween-80
[9] = dose: 100.0 mg/kg/injection, schedule: Q01DX009 (ip), vehicle: saline with Tween-80
[10] = dose: 50.0 mg/kg/injection, schedule: Q01DX005 (ip), vehicle: saline with Tween-80
[11] = dose: 100.0 mg/kg/injection, schedule: Q01DX005 (ip), vehicle: saline with Tween-80
[12] = dose: 200.0 mg/kg/injection, schedule: Q01DX005 (ip), vehicle: saline with Tween-80
[13] = dose: 12.5 mg/kg/injection, schedule: Q01DX009 (ip), vehicle: saline
[14] = dose: 25.0 mg/kg/injection, schedule: Q01DX009 (ip), vehicle: saline
[15] = dose: 100.0 mg/kg/injection, schedule: Q01DX001 (ip), vehicle: Klucel (hydroxypropylcellulose) (HPC)
[16] = dose: 200.0 mg/kg/injection, schedule: Q01DX009 (ip), vehicle: saline with Tween-80
[17] = dose: 400.0 mg/kg/injection, schedule: Q01DX009 (ip), vehicle: Klucel (hydroxypropylcellulose) (HPC)
[18] = dose: 50.0 mg/kg/injection, schedule: Q01DX009 (ip), vehicle: Klucel (hydroxypropylcellulose) (HPC)
[19] = dose: 100.0 mg/kg/injection, schedule: Q01DX009 (ip), vehicle: Klucel (hydroxypropylcellulose) (HPC)
[20] = dose: 200.0 mg/kg/injection, schedule: Q01DX009 (ip), vehicle: Klucel (hydroxypropylcellulose) (HPC)
[21] = dose: 100.0 mg/kg/injection, schedule: Q01DX001 (ip), vehicle: saline with Tween-80
[22] = dose: 200.0 mg/kg/injection, schedule: Q01DX001 (ip), vehicle: saline with Tween-80
[23] = dose: 400.0 mg/kg/injection, schedule: Q01DX001 (ip), vehicle: saline with Tween-80

For `Oc1c(Br)cc(Br)cc1Oc1c(O)c(Br)c(Br)c(Br)c1Br`, the T/C (dose: 6.25 mg/kg/injection, schedule: Q01DX005 (ip), vehicle: Klucel (hydroxypropylcellulose) (HPC)) was 104 % of control, the T/C (dose: 12.5 mg/kg/injection, schedule: Q01DX005 (ip), vehicle: Klucel (hydroxypropylcellulose) (HPC)) was 102 % of control and the T/C (dose: 25.0 mg/kg/injection, schedule: Q01DX005 (ip), vehicle: Klucel (hydroxypropylcellulose) (HPC)) was 104 % of control. The T/C [1] was 100 % of control and 101 % of control, the T/C [2] was 100 % of control and the T/C [3] was 99 % of control.

For `O=C(CSc1nc2ccccc2[nH]1)NCCO`, the T/C [4] was 98 % of control, the T/C [5] was 97 % of control and the T/C [6] was 100 % of control.

`CC12C=C3CC(OC(=O)c4ccccc4)CCC3(O1)c1ccccc12` (configuration not stated) was tested, and the T/C [7] was 99 % of control, the T/C [8] was 105 % of control and the T/C [9] was 95 % of control.

`COCC1(C)CC2CCCCC2CC1(C)O` (configuration not stated) was tested, and the T/C [10] was 93 % of control, the T/C [11] was 95 % of control and the T/C [12] was 86 % of control.

`COc1ccc(-c2c(C#N)cnc(C)c2C)c(OCc2ccccc2)c1OC` was tested, and the T/C (dose: 12.5 mg/kg/injection, schedule: Q01DX009 (ip), vehicle: other) was 106 % of control, the T/C (dose: 25.0 mg/kg/injection, schedule: Q01DX009 (ip), vehicle: other) was 101 % of control and the T/C (dose: 50.0 mg/kg/injection, schedule: Q01DX009 (ip), vehicle: other) was 105 % of control. The T/C (dose: 100.0 mg/kg/injection, schedule: Q01DX009 (ip), vehicle: other) was 98 % of control and the T/C (dose: 200.0 mg/kg/injection, schedule: Q01DX009 (ip), vehicle: other) was 92 % of control.

For `CC(Nc1nncs1)Nc1nncs1`, the T/C (dose: 30.0 mg/kg/injection, schedule: Q01DX005 (ip), vehicle: saline with Tween-80) was 105 % of control, the T/C [5] was 159 % of control and 162 % of control and the T/C [6] was 160 % of control and 170 % of control.

`C=C(CN(C)C)C(=O)c1ccc(OC)cc1` was tested, and the T/C (dose: 0.93 mg/kg/injection, schedule: Q01DX005 (ip), vehicle: saline) was 100 % of control, the T/C (dose: 1.87 mg/kg/injection, schedule: Q01DX005 (ip), vehicle: saline) was 113 % of control and the T/C (dose: 3.75 mg/kg/injection, schedule: Q01DX005 (ip), vehicle: saline) was 99 % of control.

In the case of `N=C(N)c1ccc(N=C(N)Nc2ccc(C(=N)N)cc2)cc1`, the T/C (dose: 6.25 mg/kg/injection, schedule: Q01DX009 (ip), vehicle: saline) was 95 % of control, the T/C [13] was 95 % of control and the T/C [14] was 95 % of control.

For `CCCCn1c2nc(=O)[nH]c(=O)c-2cc2ccccc21`, the T/C [7] was 98 % of control, the T/C [8] was 94 % of control and the T/C [9] was 91 % of control.

`Cc1onc(-c2c(Cl)cccc2Cl)c1C(=O)SC1=NC(C)N2C(SC(=O)c3c(-c4c(Cl)cccc4Cl)noc3C)=NC(C)N12` (configuration not stated) was tested, and the T/C [10] was 90 % of control and the T/C [11] was 87 % of control.

`CCC(c1ccc(OC)cc1)C(CC)c1ccc(O)c(CN2CCN(C)CC2)c1` (configuration not stated) was tested, and the T/C [7] was 123 % of control, the T/C [8] was 119 % of control and the T/C [9] was 119 % of control.

For `COC(=O)CCCCCCCCCCCCCCCCCCCCCCCCCCCCCCCCC(=O)OC`, the T/C (dose: 25.0 mg/kg/injection, schedule: Q01DX001 (ip), vehicle: Klucel (hydroxypropylcellulose) (HPC)) was 88 % of control, the T/C (dose: 50.0 mg/kg/injection, schedule: Q01DX001 (ip), vehicle: Klucel (hydroxypropylcellulose) (HPC)) was 88 % of control and the T/C [15] was 87 % of control.

For `COc1cc2c(cc1OC)C(C)P(C)(=O)CC2=O` (configuration not stated), the T/C [10] was 96 % of control and 99 % of control, the T/C [11] was 102 % of control and 101 % of control and the T/C [12] was 102 % of control and 99 % of control.

For `CC(Cl)C(=O)N/N=C(/c1ccccc1)C(C)(C)C` (configuration not stated), the T/C [8] was 89 % of control and the T/C [9] was 86 % of control.

For `CC1(C)CC2(OC2c2ccc([N+](=O)[O-])cc2)C(=O)c2ccccc21` (configuration not stated), the T/C (dose: 0.78 mg/kg/injection, schedule: Q01DX009 (ip), vehicle: Klucel (hydroxypropylcellulose) (HPC)) was 87 % of control, the T/C (dose: 1.56 mg/kg/injection, schedule: Q01DX009 (ip), vehicle: Klucel (hydroxypropylcellulose) (HPC)) was 88 % of control and the T/C (dose: 3.13 mg/kg/injection, schedule: Q01DX009 (ip), vehicle: Klucel (hydroxypropylcellulose) (HPC)) was 90 % of control. For the same compound, the T/C [8] was 100 % of control, the T/C [9] was 90 % of control and the T/C [16] was 95 % of control. For the same compound, the T/C [17] was 93 % of control.

In the case of `C1CNC(CCNCCSCCNCCC2=NCCN2)=N1`, the T/C [13] was 100 % of control, the T/C [14] was 96 % of control and the T/C (dose: 50.0 mg/kg/injection, schedule: Q01DX009 (ip), vehicle: saline) was 100 % of control.

With `NC(=O)CC1OC(=O)Cc2cc3c(c(O)c21)C(=O)c1c(O)cccc1C3=O` (configuration not stated) the T/C (dose: 0.75 mg/kg/injection, schedule: Q01DX009 (ip), vehicle: DMSO) was 109 % of control, the T/C (dose: 1.5 mg/kg/injection, schedule: Q01DX009 (ip), vehicle: DMSO) was 107 % of control and the T/C (dose: 3.0 mg/kg/injection, schedule: Q01DX009 (ip), vehicle: DMSO) was 107 % of control. The T/C (dose: 6.0 mg/kg/injection, schedule: Q01DX009 (ip), vehicle: DMSO) was 107 % of control.

`COc1ccc(C2COc3c(ccc(O)c3O)C2)cc1OC` (configuration not stated) was tested, and the T/C [4] was 94 % of control, the T/C [5] was 94 % of control and the T/C [6] was 94 % of control.

For `Nc1cccc2c1C(=O)c1cccc(N)c1C2=O`, the T/C [10] was 100 % of control, the T/C [18] was 97 % of control and the T/C [11] was 91 % of control. The T/C [19] was 100 % of control, the T/C [12] was 100 % of control and the T/C [20] was 108 % of control. The T/C [17] was 104 % of control.

In the case of `CC1=CC(O)C(O)C2(C)C1CC1OC(=O)C(OC3OC(CO)C(O)C(O)C3O)C3C(C)C(O)C4(O)OCC13C42` (configuration not stated), the T/C (dose: 2.13 mg/kg/injection, schedule: Q01DX005 (ip), vehicle: water) was 101 % of control.

For `C/C(=C\c1c[nH]c2ccccc12)[N+](=O)[O-]`, the T/C [9] was 109 % of control, the T/C [16] was 104 % of control and the T/C (dose: 400.0 mg/kg/injection, schedule: Q01DX009 (ip), vehicle: saline with Tween-80) was 124 % of control.

For `Nc1ncnc(N)c1NC(=O)c1cc(Cl)c(OCc2ccccc2)c(Cl)c1`, the T/C [4] was 101 % of control, the T/C [5] was 95 % of control and the T/C [6] was 94 % of control.

`O=C(Nc1ccccc1)P(=S)(c1ccccc1)c1ccccc1` was tested, and the T/C [1] was 101 % of control and 112 % of control, the T/C [2] was 104 % of control and the T/C [3] was 101 % of control and 106 % of control.

For `NC(CCCC(N)C(=O)c1ccccc1)C(=O)c1ccccc1` (configuration not stated), the T/C [4] was 92 % of control, the T/C [5] was 91 % of control and the T/C [6] was 92 % of control.

With `C1SSCC2=C1CSSC2` the T/C [4] was 100 % of control, the T/C [5] was 100 % of control and the T/C [6] was 107 % of control.

In the case of `COc1ccc(CCNC(=O)C(Sc2ccccn2)c2ccccc2)cc1OC` (configuration not stated), the T/C [1] was 94 % of control, the T/C [2] was 103 % of control and the T/C [3] was 98 % of control.

In the case of `O=C1C/C(=N\Nc2nc(-c3ccc(Cl)cc3)cs2)C(c2ccccc2)N1c1ccccc1` (configuration not stated), the T/C [21] was 98 % of control, the T/C [22] was 90 % of control and the T/C [23] was 90 % of control.

`CCO/C=N\c1c(NC(N)=O)cnn1Cc1ccccc1` was tested, and the T/C [21] was 96 % of control, the T/C [22] was 93 % of control and the T/C [23] was 98 % of control.

With `Clc1ccc(C2N3Cc4ccccc4CN2c2ccccc23)cc1` the T/C [15] was 100 % of control, the T/C (dose: 200.0 mg/kg/injection, schedule: Q01DX001 (ip), vehicle: Klucel (hydroxypropylcellulose) (HPC)) was 98 % of control and the T/C (dose: 400.0 mg/kg/injection, schedule: Q01DX001 (ip), vehicle: Klucel (hydroxypropylcellulose) (HPC)) was 96 % of control.

For `O=C(/C=C\c1ccc(Cl)cc1)c1ccccc1`, the T/C (dose: 12.5 mg/kg/injection, schedule: Q01DX009 (ip), vehicle: Klucel (hydroxypropylcellulose) (HPC)) was 101 % of control and 91 % of control, the T/C (dose: 25.0 mg/kg/injection, schedule: Q01DX009 (ip), vehicle: Klucel (hydroxypropylcellulose) (HPC)) was 100 % of control and the T/C [18] was 93 % of control and 95 % of control. The T/C (dose: 50.0 mg/kg/injection, schedule: Q01DX009 (ip), vehicle: gum acacia) was 98 % of control, the T/C [19] was 99 % of control and 93 % of control and the T/C (dose: 100.0 mg/kg/injection, schedule: Q01DX009 (ip), vehicle: gum acacia) was 104 % of control. The T/C [20] was 98 % of control and 100 % of control, the T/C (dose: 200.0 mg/kg/injection, schedule: Q01DX009 (ip), vehicle: gum acacia) was 104 % of control and the T/C [17] was 108 % of control and 92 % of control. For the same compound, the T/C (dose: 400.0 mg/kg/injection, schedule: Q01DX009 (ip), vehicle: gum acacia) was 104 % of control.
